According to patent publication US20260217672A1, “BENZAMIDE COMPOUNDS FOR TREATMENT OF BACTERIAL INFECTIONS” (Hoffmann-La Roche Inc., priority 2022, published 2026):
Values after ≈ are worked out from the molar mass of the structure shown.

What was measured:
[1] = tested on: Escherichia coli ATCC 25922; assay: Minimal Inhibitory Concentration (MIC) broth dilution assay; format: cell-based; conditions: ATCC25922, 20 h, read-out: MIC Escherichia coli ATCC 25922
Description: (§1) The antibacterial activity of the compounds of the present invention was evaluated against the commonly used quality control strain Escherichia coli ATCC 25922 and the rifampin-resistant mutant strain Klebsiella pneumonia ATCC 43816. Both were originally derived from human clinical samples and are available from ATCC (American Type Culture Collection). The in vitro potency of compounds to inhibit Escherichia coli (ATCC 25922) and Klebsiella pneumonia (ATCC 43816) growth was assessed by the MIC (Minimal Inhibitory Concentration) broth dilution method. Specifically compound dilutions were prepared from 10 mM DMSO stock solutions as follows: i) serial 2-fold dilution in 20 μL DMSO were prepared in a master plate (Greiner, Cat No: 651201), ii) 180 μL sterile distilled water was added to each aliquot and iii) 10 μL diluted compounds were transferred into a new assay plate (Costar, 3599).
(§2) Vials of each test microorganisms were maintained frozen in the vapor phase of a liquid nitrogen freezer. Single-use frozen vials of the two strains Escherichia coli ATCC 25922 (KWIKSTIK, 0335K) and Klebsiella pneumonia ATCC 43816, with predetermined CFU/mL, were taken out from the freezer, thawed at room temperature, and diluted in Cation-Adjusted Mueller Hinton Broth (CAMHB) to achieve a final inoculum of 5×10^5 CFU/mL. 90 μL bacteria containing broth was dispensed to the assay plate containing the pre-dispensed compound dilutions and mixed by pipetting 5 times.
(§3) Then the assay plates were incubated for 20 hours at 35° C. in ambient air. Following incubation, the MIC ([…]), the lowest concentration of drug that inhibits visible growth of the microorganism was read with the help of a magnification mirror and recorded.

[2] = tested on: Klebsiella pneumonia ATCC 43816; assay: as above; format: cell-based; conditions: Klebsiella pneumoniae, ATCC43816, 20 h, read-out: MIC Klebsiella pneumoniae ATCC43816
Description: as §1, §2, §3

Row | Structure (SMILES) | MIC [1] | MIC [2]
1 | COC(=O)c1cc(Cl)nc(N2CCN(S(=O)(=O)c3ccc(NC(=O)c4cccc(CNCCCN)c4)cc3)CC2)c1 [Example 019, Methyl 2-[4-[4-[[3-[(3-aminopropylamino)methyl]benzoyl]amino]phenyl]sulfonylpiperazin-1-yl]-6-chloro-pyridine-4-carboxylate] | 2.6 µg/mL (≈ 4.33 µM) | 5.2 µg/mL (≈ 8.65 µM)
2 | CC1CN(c2cc(C(F)(F)F)cc(Cl)n2)CCN1S(=O)(=O)c1ccc(NC(=O)c2cccc(CNCCCN)c2)cc1 (stereo not drawn) [Example 021, 3-[(3-Aminopropylamino)methyl]-N-[4-[4-[6-chloro-4-(trifluoromethyl)-2-pyridyl]-2-methyl-piperazin-1-yl]sulfonylphenyl]benzamide] | 3.9 µg/mL (≈ 6.24 µM) | 7.8 µg/mL (≈ 12.5 µM)
3 | CC1CN(S(=O)(=O)c2ccc(NC(=O)c3cccc(CNCCCN)c3)cc2)CCN1c1cc(C(F)(F)F)cc(Cl)n1 (stereo not drawn) [Example 022, 3-[(3-Aminopropylamino)methyl]-N-[4-[4-[6-chloro-4-(trifluoromethyl)-2-pyridyl]-3-methyl-piperazin-1-yl]sulfonylphenyl]benzamide] | 3.9 µg/mL (≈ 6.24 µM) | 3.9 µg/mL (≈ 6.24 µM)
4 | NCCCNCc1cccc(C(=O)Nc2ccc(S(=O)(=O)N3CCN(c4cc(C(F)(F)F)cc(Cl)n4)C4CCC43)cc2)c1 (stereo not drawn) [Example 023, 3-[(3-Aminopropylamino)methyl]-N-[4-[[5-[6-chloro-4-(trifluoromethyl)-2-pyridyl]-2,5-diazabicyclo[4.2.0]octan-2-yl]sulfonyl]phenyl]benzamide] | 4.2 µg/mL (≈ 6.59 µM) | 4.2 µg/mL (≈ 6.59 µM)
5 | NCCCNCc1cccc(C(=O)Nc2ccc(S(=O)(=O)N3CCN(c4cc(C(F)(F)F)cc(Cl)n4)CC3)cc2)c1 [Example 024, 3-[(3-Aminopropylamino)methyl]-N-[4-[4-[6-chloro-4-(trifluoromethyl)-2-pyridyl]piperazin-1-yl]sulfonylphenyl]benzamide] | 0.48 µg/mL (≈ 0.785 µM) | 0.96 µg/mL (≈ 1.57 µM)
6 | N#CN=S(=O)(c1ccc(NC(=O)c2cccc(CCNCCCN)c2)cc1)N1CCN(c2cc(C(F)(F)F)cc(Cl)n2)CC1 (stereo not drawn) [Example 025, 3-[2-(3-Aminopropylamino)ethyl]-N-[4-[S-[4-[6-chloro-4-(trifluoromethyl)-2-pyridyl]piperazin-1-yl]-N-cyano-sulfonimidoyl]phenyl]benzamide] | 1.3 µg/mL (≈ 2 µM) | 5.1 µg/mL (≈ 7.86 µM)
7 | CN=S(=O)(c1ccc(NC(=O)c2cccc(CNCCCN)c2)cc1)N1CCN(c2cc(C(F)(F)F)cc(Cl)n2)CC1 (stereo not drawn) [Example 026, 3-[(3-aminopropylamino)methyl]-N-[4-[S-[4-[6-chloro-4-(trifluoromethyl)-2-pyridyl]piperazin-1-yl]-N-methyl-sulfonimidoyl]phenyl]benzamide] | 3.9 µg/mL (≈ 6.25 µM) | 7.8 µg/mL (≈ 12.5 µM)
8 | COc1cc(NC(=O)c2cccc(CNCCCN)c2)ccc1S(=O)(=O)N1CCN(c2cc(C(F)(F)F)cc(Cl)n2)CC1 [Example 027, 3-[(3-Aminopropylamino)methyl]-N-[4-[4-[6-chloro-4-(trifluoromethyl)-2-pyridyl]piperazin-1-yl]sulfonyl-3-methoxy-phenyl]benzamide] | 4 µg/mL (≈ 6.24 µM) | 4 µg/mL (≈ 6.24 µM)
9 | NCCCNCc1cccc(C(=O)Nc2ccc(S(=O)(=O)N3CCN(c4cc(C(F)(F)F)cc(Cl)n4)CC3)c(O)c2)c1 [Example 028, 3-[(3-Aminopropylamino)methyl]-N-[4-[4-[6-chloro-4-(trifluoromethyl)-2-pyridyl]piperazin-1-yl]sulfonyl-3-hydroxy-phenyl]benzamide] | 4.6 µg/mL (≈ 7.34 µM) | 9.3 µg/mL (≈ 14.8 µM)
10 | NCCCNCc1ccc(C(=O)Nc2ccc(S(=O)(=O)N3CCN(c4cc(C(F)(F)F)cc(Cl)n4)CC3)cn2)cc1 [Example 029, 4-[(3-Aminopropylamino)methyl]-N-[5-[4-[6-chloro-4-(trifluoromethyl)-2-pyridyl]piperazin-1-yl]sulfonyl-2-pyridyl]benzamide] | 1.9 µg/mL (≈ 3.1 µM) | 3.8 µg/mL (≈ 6.21 µM)
11 | COc1cc(S(=O)(=O)N2CCN(c3cc(C(F)(F)F)cc(Cl)n3)CC2)ccc1NC(=O)c1cccc(CNCCCN)c1 [Example 030, 3-[(3-Aminopropylamino)methyl]-N-[4-[4-[6-chloro-4-(trifluoromethyl)-2-pyridyl]piperazin-1-yl]sulfonyl-2-methoxy-phenyl]benzamide] | 4 µg/mL (≈ 6.24 µM) | 8 µg/mL (≈ 12.5 µM)
12 | NCCCNCc1cccc(C(=O)Nc2ccc(S(=O)(=O)N3CCN(c4cc(C(F)(F)F)cc(Cl)n4)CC3)cc2O)c1 [Example 031, 3-[(3-Aminopropylamino)methyl]-N-[4-[4-[6-chloro-4-(trifluoromethyl)-2-pyridyl]piperazin-1-yl]sulfonyl-2-hydroxy-phenyl]benzamide] | 3.9 µg/mL (≈ 6.22 µM) | 3.9 µg/mL (≈ 6.22 µM)
13 | Cn1cc2c(n1)CN(C(=O)Nc1ccc(S(=O)(=O)N3CCN(c4cc(C(F)(F)F)cc(Cl)n4)CC3)cc1)C2 [Example 032, N-[4-[4-[6-chloro-4-(trifluoromethyl)-2-pyridyl]piperazin-1-yl]sulfonylphenyl]-2-methyl-4,6-dihydropyrrolo[3,4-c]pyrazole-5-carboxamide] | 7.1 µg/mL (≈ 12.5 µM) | 7.1 µg/mL (≈ 12.5 µM)
14 | Cn1ncc2c1CN(C(=O)Nc1ccc(S(=O)(=O)N3CCN(c4cc(C(F)(F)F)cc(Cl)n4)CC3)cc1)C2 [Example 033, N-[4-[4-[6-chloro-4-(trifluoromethyl)-2-pyridyl]piperazin-1-yl]sulfonylphenyl]-1-methyl-4,6-dihydropyrrolo[3,4-c]pyrazole-5-carboxamide] | 3.6 µg/mL (≈ 6.32 µM) | 3.6 µg/mL (≈ 6.32 µM)
15 | Cn1ncc(C(=O)N2CCc3cc(S(=O)(=O)N4CCN(c5cc(C(F)(F)F)cc(Cl)n5)CC4)ccc32)c1C(=O)O [Example 035, 4-[5-[4-[6-Chloro-4-(trifluoromethyl)-2-pyridyl]piperazin-1-yl]sulfonylindoline-1-carbonyl]-2-methyl-pyrazole-3-carboxylic acid] | 3.7 µg/mL (≈ 6.18 µM) | 7.5 µg/mL (≈ 12.5 µM)
16 | O=C(c1cnn(C2CNC2)c1)N1CCc2cc(S(=O)(=O)N3CCN(c4cc(C(F)(F)F)cc(Cl)n4)CC3)ccc21 [Example 036, [1-(Azetidin-3-yl)pyrazol-4-yl]-[5-[4-[6-chloro-4-(trifluoromethyl)-2-pyridyl]piperazin-1-yl]sulfonylindolin-1-yl]methanone] | 3.7 µg/mL (≈ 6.21 µM) | 7.4 µg/mL (≈ 12.4 µM)
17 | NCCCn1cc(C(=O)N2CCc3cc(S(=O)(=O)N4CCN(c5cc(C(F)(F)F)cc(Cl)n5)CC4)ccc32)cn1 [Example 037, [1-(3-Aminopropyl)pyrazol-4-yl]-[5-[4-[6-chloro-4-(trifluoromethyl)-2-pyridyl]piperazin-1-yl]sulfonylindolin-1-yl]methanone] | 3.7 µg/mL (≈ 6.19 µM) | 7.5 µg/mL (≈ 12.5 µM)
18 | O=C(c1cnn2c1CNCC2)N1CCc2cc(S(=O)(=O)N3CCN(c4cc(C(F)(F)F)cc(Cl)n4)CC3)ccc21 [Example 038, [5-[4-[6-Chloro-4-(trifluoromethyl)-2-pyridyl]piperazin-1-yl]sulfonylindolin-1-yl]-(4,5,6,7-tetrahydropyrazolo[1,5-a]pyrazin-3-yl)methanone] | 3.7 µg/mL (≈ 6.21 µM) | 7.4 µg/mL (≈ 12.4 µM)
19 | O=C(CN1CCNCC1)Nc1ccc(S(=O)(=O)N2CCN(c3cc(C(F)(F)F)cc(Cl)n3)CC2)cc1 [Example 040, N-[4-[4-[6-chloro-4-(trifluoromethyl)-2-pyridyl]piperazin-1-yl]sulfonylphenyl]-2-piperazin-1-yl-acetamide] | 2.1 µg/mL (≈ 3.84 µM) | 8.3 µg/mL (≈ 15.2 µM)
20 | O=C(O)c1ccccc1C(=O)N1CCc2cc(S(=O)(=O)N3CCN(c4cc(C(F)(F)F)cc(Cl)n4)CC3)ccc21 [Example 042, 2-[5-[4-[6-Chloro-4-(trifluoromethyl)-2-pyridyl]piperazin-1-yl]sulfonylindoline-1-carbonyl]benzoic acid] | 0.99 µg/mL (≈ 1.66 µM) | 2 µg/mL (≈ 3.36 µM)
21 | Cc1cc(C(F)(F)F)nc(N2CCN(S(=O)(=O)c3ccc(NC(=O)c4cnc5c(c4)CNC5)cc3)CC2)n1 [Example 044, N-[4-[4-[4-methyl-6-(trifluoromethyl)pyrimidin-2-yl]piperazin-1-yl]sulfonylphenyl]-6,7-dihydro-5H-pyrrolo[3,4-b]pyridine-3-carboxamide] | 0.91 µg/mL (≈ 1.66 µM) | 1.8 µg/mL (≈ 3.29 µM)
22 | Cc1cc(C(F)(F)F)cc(N2CCN(S(=O)(=O)c3ccc(NC(=O)c4cnc5c(c4)CNC5)cc3)CC2)n1 [Example 045, N-[4-[4-[6-methyl-4-(trifluoromethyl)-2-pyridyl]piperazin-1-yl]sulfonylphenyl]-6,7-dihydro-5H-pyrrolo[3,4-b]pyridine-3-carboxamide] | 0.91 µg/mL (≈ 1.66 µM) | 3.6 µg/mL (≈ 6.59 µM)
23 | O=C(Nc1ccc(S(=O)(=O)N2CCN(c3cc(C(F)(F)F)cc(Cl)n3)CC2)cc1)c1ccc2c(c1)CNC2 [Example 046, N-[4-[4-[6-chloro-4-(trifluoromethyl)-2-pyridyl]piperazin-1-yl]sulfonylphenyl]isoindoline-5-carboxamide] | 0.47 µg/mL (≈ 0.83 µM) | 0.47 µg/mL (≈ 0.83 µM)
24 | O=C(Nc1ccc(S(=O)(=O)N2CCN(c3cc(C(F)(F)F)cc(Cl)n3)CC2)cc1)c1cccc(N2CC3CC2CN3)c1 (stereo not drawn) [Example 047, N-[4-[4-[6-chloro-4-(trifluoromethyl)-2-pyridyl]piperazin-1-yl]sulfonylphenyl]-3-(2,5-diazabicyclo[2.2.1]heptan-2-yl)benzamide] | 1.1 µg/mL (≈ 1.77 µM) | 2.3 µg/mL (≈ 3.7 µM)
